The text below walks through data of patent publication US20230278972A1, “SUBSTITUTED HALOALKYL SULFONANILIDE HERBICIDES” (FMC Corporation, priority 2020, published 2023).

The test system of data set [1] is barnyardgrass (Echinochloa crus-galli). The data set is described as follows: Test B flooded paddy test, barnyardgrass. The following applies: 336 h, read-out: Plant response rating, Barnyardgrass.
Data set [2] has as its system kochia (Bassia scoparia). The data set is described as follows: Test A postemergence, kochia. The format is in vivo. The conditions noted are these: Bassia scoparia, post-emergence, 240 h; Postemergence, 1000 g ai/ha; visual injury, 0 to 100 scale (0 no effect, 100 complete control), approx. 10 days; read-out: Plant response rating, Kochia. A digest of the protocol:
(§1)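 Seeds are sown in loam mixed with sand and sprayed on the soil surface right after planting for the preemergence test. Postemergence pots are sprayed once seedlings reach 2 to 10 cm at the one- to two-leaf stage. The same surfactant-containing, non-phytotoxic solvent formulation serves both.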

Data set [3] deals with Ryegrass, Italian (Italian ryegrass, Lolium multiflorum). Briefly: Test A postemergence, Ryegrass, Italian. The format is in vivo. The following applies: Lolium multiflorum, post-emergence, 240 h; Postemergence, 1000 g ai/ha; visual injury, 0 to 100 scale (0 no effect, 100 complete control), approx. 10 days; read-out: Plant response rating, Ryegrass, Italian. The procedure, abridged:
as §1

The next data set relates to rice (Oryza sativa). The data set is described as follows: Test B flooded paddy test, rice. The following applies: 336 h, read-out: Plant response rating, Rice.
In data set [4] the test system is Foxtail, Giant (giant foxtail, Setaria faberi). The data set is described as follows: Test A postemergence, Foxtail, Giant. The following applies: Setaria faberi, post-emergence, 240 h; Postemergence, 1000 g ai/ha; visual injury, 0 to 100 scale (0 no effect, 100 complete control), approx. 10 days; read-out: Plant response rating, Foxtail, Giant. The format is in vivo. A digest of the protocol: as §1

For data set [5] the test system is unchanged. Briefly: Test A preemergence, Foxtail, Giant. The format is in vivo. The conditions noted are these: Setaria faberi, pre-emergence, 240 h; Preemergence, 1000 g ai/ha; 0 to 100 scale (0 no effect, 100 complete control); read-out: Plant response rating, Foxtail, Giant. A digest of the protocol: as §1
The subject of data set [6] is ragweed (common ragweed, Ambrosia artemisiifolia). The data set is described as follows: Test A postemergence, ragweed. Type of data set: in vivo. The following applies: Ambrosia artemisiifolia, post-emergence, 240 h; Postemergence, 1000 g ai/ha; visual injury, 0 to 100 scale (0 no effect, 100 complete control), approx. 10 days; read-out: Plant response rating, Ragweed. A digest of the protocol:
as §1

For data set [7], the system named is ducksalad (Heteranthera limosa). The data set is described as follows: Test B flooded paddy test, ducksalad. The conditions noted are these: 336 h, read-out: Plant response rating, Ducksalad.
Data set [8] deals with barnyardgrass (Echinochloa crus-galli). The data set is described as follows: Test A postemergence, barnyardgrass. Type of data set: in vivo. The conditions noted are these: Echinochloa crus-galli, post-emergence, 240 h; Postemergence, 1000 g ai/ha; visual injury, 0 to 100 scale (0 no effect, 100 complete control), approx. 10 days; read-out: Plant response rating, Barnyardgrass. The procedure, abridged:
(§2)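 Barnyardgrass, wheat and galium were treated postemergence at the one- to two-leaf stage (2 to 10 cm) with chemicals formulated in non-phytotoxic solvent plus surfactant, grown in loam soil–sand pots. Pigweed was sown in the same blend and given a preemergence directed soil spray.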

Data set [9] deals with galium (catchweed bedstraw, Galium aparine). The data set is described as follows: Test A postemergence, galium. The conditions noted are these: Galium, post-emergence, 240 h; Postemergence, 1000 g ai/ha; visual injury, 0 to 100 scale (0 no effect, 100 complete control), approx. 10 days; read-out: Plant response rating, Galium. The format is in vivo. The procedure, abridged:
as §2

Data set [10] relates to pigweed (Amaranthus retroflexus). The data set is described as follows: Test A preemergence, pigweed. Type of data set: in vivo. The following applies: Amaranthus retroflexus, pre-emergence, 240 h, 1000 g ai/ha, 0 to 100 scale (0 no effect, 100 complete control), read-out: Plant response rating, Pigweed. The procedure, abridged:
as §2

The subject of data set [11] is Ryegrass, Italian (Italian ryegrass, Lolium multiflorum). Briefly: Test A preemergence, Ryegrass, Italian. The format is in vivo. The following applies: Lolium multiflorum, pre-emergence, 240 h; Preemergence, 1000 g ai/ha; 0 to 100 scale (0 no effect, 100 complete control); read-out: Plant response rating, Ryegrass, Italian. The procedure, abridged:
as §1

In data set [12] the test system is kochia (Bassia scoparia). The data set is described as follows: Test A preemergence, kochia. The following applies: Bassia scoparia, pre-emergence, 240 h; Preemergence, 1000 g ai/ha; 0 to 100 scale (0 no effect, 100 complete control); read-out: Plant response rating, Kochia. The format is in vivo. A digest of the protocol: as §1
For data set [13], the system named is wheat (Triticum aestivum). Briefly: Test A postemergence, wheat. The following applies: Triticum aestivum, post-emergence, 240 h; Postemergence, 1000 g ai/ha; visual injury, 0 to 100 scale (0 no effect, 100 complete control), approx. 10 days; read-out: Plant response rating, Wheat. Type of data set: in vivo. A digest of the protocol: as §2
Data set [14] deals with pigweed (Amaranthus retroflexus). The data set is described as follows: Test A postemergence, pigweed. The conditions noted are these: Amaranthus retroflexus, post-emergence, 240 h; Postemergence, 1000 g ai/ha; visual injury, 0 to 100 scale (0 no effect, 100 complete control), approx. 10 days; read-out: Plant response rating, Pigweed. Type of data set: in vivo. The procedure, abridged:
as §1

Another data set has as its system corn (Zea mays). The data set is described as follows: Test A postemergence, corn. Type of data set: in vivo. The following applies: Zea mays, post-emergence, 240 h; Postemergence, 1000 g ai/ha; visual injury, 0 to 100 scale (0 no effect, 100 complete control), approx. 10 days. The procedure, abridged: as §1
Data set [15] relates to ragweed (common ragweed, Ambrosia artemisiifolia). Briefly: Test A preemergence, ragweed. The conditions noted are these: Ambrosia artemisiifolia, pre-emergence, 240 h; Preemergence, 1000 g ai/ha; 0 to 100 scale (0 no effect, 100 complete control); read-out: Plant response rating, Ragweed. Type of data set: in vivo. A digest of the protocol: as §1
In data set [16] the test system is barnyardgrass (Echinochloa crus-galli). The data set is described as follows: Test A preemergence, barnyardgrass. The format is in vivo. The following applies: Echinochloa crus-galli, pre-emergence, 240 h; Preemergence, 1000 g ai/ha; 0 to 100 scale (0 no effect, 100 complete control); read-out: Plant response rating, Barnyardgrass. A digest of the protocol:
as §1

Data set [17] concerns blackgrass (Alopecurus myosuroides). The data set is described as follows: Test A postemergence, blackgrass. The conditions noted are these: Alopecurus myosuroides, post-emergence, 240 h; Postemergence, 1000 g ai/ha; visual injury, 0 to 100 scale (0 no effect, 100 complete control), approx. 10 days; read-out: Plant response rating, Blackgrass. Type of data set: in vivo. The procedure, abridged:
as §1

A word on the melting point: it is the temperature of the solid-liquid transition. `Cc1cc(C)c(C(=O)N2CCCCC2)cc1NS(=O)(=O)C(F)(F)F` [Compound 260, N-[2,4-Dimethyl-5-(1-piperidinylcarbonyl)phenyl]-1,1,1-trifluoromethanesulfonamide] yielded a melting point of 262 to 266 °C. Further, the pest or weed control at 250 g/ha in data set [1] was 0%. The pest or weed control at 1000 g/ha in the data set with kochia (Bassia scoparia) [2] is 0%. In data set [3], the pest or weed control at 1000 g/ha is 60%. For the same compound, the plant injury at 250 g/ha in the data set with rice (Oryza sativa) amounted to 0%. Besides, the pest or weed control at 1000 g/ha in data set [4] was determined as 50%. The pest or weed control at 1000 g/ha in data set [5] is 100%. Moreover, in [6], the pest or weed control at 1000 g/ha turned out to be 50%. Moreover, the pest or weed control at 250 g/ha in [7] was found to be 80%. The pest or weed control at 1000 g/ha in data set [8] was 90%. The pest or weed control at 1000 g/ha in data set [9] was determined as 70%. Also, the pest or weed control at 1000 g/ha in data set [10] came out at 100%. The pest or weed control at 1000 g/ha in data set [11] was 100%. For the same compound, in the data set on kochia (Bassia scoparia) [12], the pest or weed control at 1000 g/ha was 40%. The plant injury at 1000 g/ha in [13] is 60%. The pest or weed control at 1000 g/ha in data set [14] came out at 80%. The compound also showed a Corn plant response rating (crop injury, 0 = no effect, 100 = complete kill) at 1000 g/ha in the data set on corn (Zea mays) of 10%. Moreover, the pest or weed control at 1000 g/ha in [15] came to 90%. The pest or weed control at 1000 g/ha in [16] is 100%. In [17], the pest or weed control at 1000 g/ha was 50%.
